# Measurements reported in patent US10294229B2, “Heteroaryl substituted aminopyridine compounds” (BRISTOL-MYERS SQUIBB COMPANY, priority 2015, dated 2019).
# Molecular target: IRAK4 (Homo sapiens (Human), UniProt Q9NWZ3)
# Assay: IRAK4 Inhibition Assay
# Type: biochemical
# Conditions: ATP 500 μM; IRAK4 0.6 nM
# How it was run: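 Readout: electrophoretic (LabChip) separation of fluorescent peptide substrate from phosphorylated product after EDTA quench. Reactions ran 60 min at room temperature with 0.6 nM IRAK4, 1.5 μM peptide and 500 μM ATP; inhibition referenced to no-enzyme (100%) and vehicle (0%) controls.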
# Sequence of IRAK4 (Q9NWZ3 whole entry, species assumed): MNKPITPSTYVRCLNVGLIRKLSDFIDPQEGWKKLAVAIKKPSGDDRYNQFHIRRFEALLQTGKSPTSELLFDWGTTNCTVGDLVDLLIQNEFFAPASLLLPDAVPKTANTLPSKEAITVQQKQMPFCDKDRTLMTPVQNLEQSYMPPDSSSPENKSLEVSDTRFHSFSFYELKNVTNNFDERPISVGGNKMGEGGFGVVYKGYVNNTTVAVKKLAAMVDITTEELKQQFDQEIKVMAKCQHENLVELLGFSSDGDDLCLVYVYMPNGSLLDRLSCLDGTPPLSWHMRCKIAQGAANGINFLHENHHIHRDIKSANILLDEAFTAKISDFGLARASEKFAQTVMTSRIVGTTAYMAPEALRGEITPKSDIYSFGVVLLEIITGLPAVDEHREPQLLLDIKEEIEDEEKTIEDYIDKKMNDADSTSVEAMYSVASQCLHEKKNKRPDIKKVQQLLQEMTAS
row,SMILES,IC50
1,"CC(C)Nc1cc(-n2ncc3cc(C#N)cnc32)ncc1-c1cn(CC(N)=O)cn1 [Example 237, 2-(4-(6-(5-cyano-1H-pyrazolo[3,4-b]pyridin-1-yl)-4-(isopropylamino)pyridin-3-yl)-1H-imidazol-1-yl) acetamide]",37 nM
2,"CNC(=O)Cn1cnc(-c2cnc(-n3ncc4cc(C#N)cnc43)cc2NC(C)C)c1 [Example 238, 2-(4-(6-(5-cyano-1H-pyrazolo[3,4-b]pyridin-1-yl)-4-(isopropylamino)pyridin-3-yl)-1H-imidazol-1-yl)-N-methylacetamide]",36 nM
3,"CC(C)Nc1cc(-n2ncc3cc(C#N)cnc32)ncc1-c1cn(Cc2ccccn2)cn1 [Example 239, 1-(4-(isopropylamino)-5-(1-(pyridin-2-ylmethyl)-1H-imidazol-4-yl)pyridin-2-yl)-1H-pyrazolo[3,4-b]pyridine-5-carbonitrile]",34 nM
4,"CC(C)Nc1cc(-n2ncc3cc(C#N)cnc32)ncc1-c1cn(CCCc2ccccc2)cn1 [Example 241, 1-(4-(isopropylamino)-5-(1-(3-phenylpropyl)-1H-imidazol-4-yl)pyridin-2-yl)-1H-pyrazolo [3,4-b]pyridine-5-carbonitrile]",35 nM
5,"CC(C)Nc1cc(-n2ncc3cc(C#N)cnc32)ncc1-n1cc(CCO)cn1 [Example 242, 1-(5-(4-(2-hydroxyethyl)-1H-pyrazol-1-yl)-4-(isopropylamino)pyridin-2-yl)-1H-pyrazolo[3,4-b]pyridine-5-carbonitrile]",47 nM
6,"CC(C)Nc1cc(-n2ncc3cc(C#N)cnc32)ncc1-n1cc(Cc2ccccc2)cn1 [Example 243, 1-(5-(4-benzyl-1H-pyrazol-1-yl)-4-(isopropylamino)pyridin-2-yl)-1H-pyrazolo[3,4-b]pyridine-5-carbonitrile]",62 nM
7,"CC(C)Nc1cc(-n2ncc3cc(C#N)cnc32)ncc1-n1cc(C(C)C)cn1 [Example 244, 1-(5-(4-isopropyl-1H-pyrazol-1-yl)-4-(isopropylamino)pyridin-2-yl)-1H-pyrazolo[3,4-b]pyridine-5-carbonitrile]",61 nM
8,"CC(C)Nc1cc(-n2ncc3cc(C#N)cnc32)ncc1-n1cc(-c2ccccn2)cn1 [Example 245, 1-(4-(isopropylamino)-5-(4-(pyridin-2-yl)-1H-pyrazol-1-yl)pyridin-2-yl)-1H-pyrazolo[3,4-b]pyridine-5-carbonitrile]",334 nM
9,"Cc1ccn(-c2cnc(-n3ncc4cc(C#N)cnc43)cc2NC(C)C)n1 [Example 246, 1-(4-(isopropylamino)-5-(3-methyl-1H-pyrazol-1-yl)pyridin-2-yl)-1H-pyrazolo[3,4-b] pyridine-5-carbonitrile]",336 nM
10,"CC(C)Nc1cc(-n2ncc3cc(C#N)cnc32)ncc1-n1ccc(C(F)(F)F)n1 [Example 247, 1-(4-(isopropylamino)-5-(3-(trifluoromethyl)-1H-pyrazol-1-yl)pyridin-2-yl)-1H-pyrazolo[3,4-b]pyridine-5-carbonitrile]",202 nM
11,"CC(C)Nc1cc(-n2ncc3cc(C#N)cnc32)ncc1-n1ccc(C#N)n1 [Example 248, 1-(5-(3-cyano-1H-pyrazol-1-yl)-4-(isopropylamino)pyridin-2-yl)-1H-pyrazolo[3,4-b]pyridine-5-carbonitrile]",66 nM
12,"CC(C)Nc1cc(-n2ncc3cc(C#N)cnc32)ncc1-n1ccc(-c2cccnc2)n1 [Example 249, 1-(4-(isopropylamino)-5-(3-(pyridin-3-yl)-1H-pyrazol-1-yl)pyridin-2-yl)-1H-pyrazolo[3,4-b]pyridine-5-carbonitrile]",47 nM
13,"CC(C)Nc1cc(-n2ncc3cc(C#N)cnc32)ncc1-n1ccc(CC#N)n1 [Example 250, 1-(5-(3-(cyanomethyl)-1H-pyrazol-1-yl)-4-(isopropylamino)pyridin-2-yl)-1H-pyrazolo[3,4-b]pyridine-5-carbonitrile]",196 nM
14,"CC(C)Nc1cc(-n2ncc3cc(C#N)cnc32)ncc1-n1cc(CCCN)cn1 [Example 251, 1-(5-(4-(3-aminopropyl)-1H-pyrazol-1-yl)-4-(isopropylamino)pyridin-2-yl)-1H-pyrazolo[3,4-b]pyridine-5-carbonitrile]",39 nM
15,"CC(C)Nc1cc(-n2ncc3cc(C#N)cnc32)ncc1-c1cnn(CCO)c1 [Example 252, 1-(5-(1-(2-hydroxyethyl)-1H-pyrazol-4-yl)-4-(isopropylamino)pyridin-2-yl)-1H-pyrazolo[3,4-b]pyridine-5-carbonitrile]",119 nM
16,"CCn1cc(-c2cnc(-n3ncc4cc(C#N)cnc43)cc2NC(C)C)cn1 [Example 253, 1-(5-(1-ethyl-1H-pyrazol-4-yl)-4-(isopropylamino)pyridin-2-yl)-1H-pyrazolo[3,4-b]pyridine-5-carbonitrile]",65 nM
17,"CC(C)Nc1cc(-n2ncc3cc(C#N)cnc32)ncc1-c1cnn(CC2COC2)c1 [Example 254, 1-(4-(isopropylamino)-5-(1-(oxetan-3-ylmethyl)-1H-pyrazol-4-yl)pyridin-2-yl)-1H-pyrazolo[3,4-b]pyridine-5-carbonitrile]",190 nM

row,SMILES,IC50
1,"CC(C)Nc1cc(-n2ncc3cc(C#N)cnc32)ncc1-c1cnn(CC(F)(F)F)c1 [Example 255, 1-(4-(isopropylamino)-5-(1-(2,2,2-trifluoroethyl)-1H-pyrazol-4-yl)pyridin-2-yl)-1H-pyrazolo[3,4-b]pyridine-5-carbonitrile]",39 nM
2,"CC(C)Nc1cc(-n2ncc3cc(C#N)cnc32)ncc1-c1cnn(C2CCOCC2)c1 [Example 257, 1-(4-(isopropylamino)-5-(1-(tetrahydro-2H-pyran-4-yl)-1H-pyrazol-4-yl)pyridin-2-yl)-1H-pyrazolo[3,4-b]pyridine-5-carbonitrile]",20 nM
3,"CC(C)Nc1cc(-n2ncc3cc(C#N)cnc32)ncc1-c1cnn(C2CC2)c1 [Example 259, 1-(5-(1-cyclopropyl-1H-pyrazol-4-yl)-4-(isopropylamino)pyridin-2-yl)-1H-pyrazolo[3,4-b]pyridine-5-carbonitrile]",153 nM
4,"CC(C)Nc1cc(-n2ncc3cc(C#N)cnc32)ncc1-c1cnn(C(F)F)c1 [Example 260, 1-(5-(1-(difluoromethyl)-1H-pyrazol-4-yl)-4-(isopropylamino)pyridin-2-yl)-1H-pyrazolo[3,4-b]pyridine-5-carbonitrile]",146 nM
5,"CCCn1cc(-c2cnc(-n3ncc4cc(C#N)cnc43)cc2NC(C)C)cn1 [Example 261, 1-(4-(isopropylamino)-5-(1-propyl-1H-pyrazol-4-yl)pyridin-2-yl)-1H-pyrazolo[3,4-b]pyridine-5-carbonitrile]",29 nM
6,"CC(C)Nc1cc(-n2ncc3cncnc32)ncc1-c1cnn(CC(F)(F)F)c1 [Example 262, N-isopropyl-2-(1H-pyrazolo[3,4-d]pyrimidin-1-yl)-5-(1-(2,2,2-trifluoroethyl)-1H-pyrazol-4-yl)pyridin-4-amine]",288 nM
7,"COCc1cn(-c2cnc(-n3ncc4cc(C#N)cnc43)cc2NC(C)C)nn1 [Example 267, 1-(4-(isopropylamino)-5-(4-(methoxymethyl)-1H-1,2,3-triazol-1-yl)pyridin-2-yl)-1H-pyrazolo [3,4-b]pyridine-5-carbonitrile]",83 nM
8,"CC(O)Cc1cn(-c2cnc(-n3ncc4cc(C#N)cnc43)cc2NC(C)C)nn1 (stereo not drawn) [Example 268, 1-(5-(4-(2-hydroxypropyl)-1H-1,2,3-triazol-1-yl)-4-(isopropylamino)pyridin-2-yl)-1H-pyrazolo[3,4-b]pyridine-5-carbonitrile]",38 nM
9,"CCCc1cn(-c2cnc(-n3ncc4cncnc43)cc2Nc2cnn(CC(F)F)c2)nn1 [Example 271, N-(1-(2,2-difluoroethyl)-1H-pyrazol-4-yl)-5-(4-propyl-1H-1,2,3-triazol-1-yl)-2-(1H-pyrazolo[3,4-d]pyrimidin-1-yl)pyridin-4-amine]",108 nM
10,"CCCc1cn(-c2cnc(-n3ncc4cc(C#N)cnc43)cc2N[C@H](C)CO)nn1 [Example 272, (R)-1-(4-((1-hydroxypropan-2-yl)amino)-5-(4-propyl-1H-1,2,3-triazol-1-yl)pyridin-2-yl)-1H-pyrazolo[3,4-b]pyridine-5-carbonitrile]",529 nM
11,"CCCc1cn(-c2cnc(-n3ncc4cc(C#N)cnc43)cc2N[C@@H](C)CO)nn1 [Example 273, (S)-1-(4-((1-hydroxypropan-2-yl)amino)-5-(4-propyl-1H-1,2,3-triazol-1-yl)pyridin-2-yl)-1H-pyrazolo[3,4-b]pyridine-5-carbonitrile]",78 nM
12,"CCCc1cn(-c2cnc(-n3ncc4cc(C#N)cnc43)cc2NC2COC2)nn1 [Example 276, 1-(4-(oxetan-3-ylamino)-5-(4-propyl-1H-1,2,3-triazol-1-yl)pyridin-2-yl)-1H-pyrazolo[3,4-b]pyridine-5-carbonitrile]",17 nM
13,"CCCc1cn(-c2cnc(-n3cnc4cc(C#N)cnc43)cc2NC2COC2)nn1 [Example 277, 3-(4-(oxetan-3-ylamino)-5-(4-propyl-1H-1,2,3-triazol-1-yl)pyridin-2-yl)-3H-imidazo[4,5-b]pyridine-6-carbonitrile]",87 nM
14,"CCCc1cn(-c2cnc(-n3cnc4cnc(N)nc43)cc2NC(C)C)nn1 [Example 279, 9-(4-(isopropylamino)-5-(4-propyl-1H-1,2,3-triazol-1-yl)pyridin-2-yl)-9H-purin-2-amine]",17 nM
15,"CCCc1cn(-c2cnc(-n3cnc4cc(C#N)cnc43)cc2N[C@H](C)CO)nn1 [Example 286, (R)-3-(4-((1-hydroxypropan-2-yl)amino)-5-(4-propyl-1H-1,2,3-triazol-1-yl)pyridin-2-yl)-3H-imidazo[4,5-b]pyridine-6-carbonitrile]",157 nM
16,"CCCc1cn(-c2cnc(-n3ncc4cc(C#N)cnc43)cc2NCC(C)(C)O)nn1 [Example 287, 1-(4-((2-hydroxy-2-methylpropyl)amino)-5-(4-propyl-1H-1,2,3-triazol-1-yl)pyridin-2-yl)-1H-pyrazolo[3,4-b]pyridine-5-carbonitrile]",34 nM
